Test results: publication PMC11053983, “Beyond One-Size-Fits-All: Tailoring Teicoplanin Regimens for Normal Renal Function Patients Using Population Pharmacokinetics and Monte Carlo Simulation” (Pharmaceutics, 2024)

Assays:
[1] = 12 mg/kg every 12 h x4, then 12 mg/kg daily; median CLCR 113 mL/min; cited from earlier work
[2] = human, in vivo; cited from earlier work
Text: Teicoplanin, along with the glycopeptide antibiotic vancomycin, has an important role in the treatment of Gram-positive bacterial infections, including those caused by methicillin-resistant Staphylococcus aureus (MRSA). […] Based on the European Medicines Agency’s summary of the product characteristics (SmPC) for teicoplanin, adults and the elderly with normal renal function have recommended specific do ...

[3] = human, in vivo; cited from earlier work; remark: listed apart in the source
Experimental: In the second simulation, the PTA was determined for different LD and MD regimens to satisfy both criteria: a Ctrough greater than 20 mg/L and an AUC/MIC ratio of at least 800. Adopting a similar approach to the first simulation, we used two distinct LD and MD combinations. The proportion of patients achieving both therapeutic targets was continuously assessed from days 3 to 7 following the initiation of treatment.

[4] = Population PK analysis (NONMEM, three-compartment model), 12 healthy adults, 200 mg IV; type: in vivo; details: for CL, total clearance / AUC (dose/CL) / VC, central volume of distribution / Vss, steady-state volume of distribution: individual parameters; for CL, total clearance: n = 12; for 1st t1/2 / 2nd t1/2 / 3rd t1/2: three-compartment model
Experimental: (§1) A 200 mg dose of teicoplanin in 100 mL of normal saline was administered intravenously to subjects over 30 min. Venous blood samples (6 mL each) were collected into heparinized tubes at 33, 36, 45, and 90 min, and 4, 8, 48–120, and 168–240 h after starting the infusion. Eight sampling points were used per subject to analyze PK parameters via noncompartmental and population PK methods.
(§2) Plasma levels of teicoplanin were quantified using tandem mass spectrometry coupled with HPLC (HPLC-MS/MS). The analytical system utilized included an LC-40 HPLC unit from Shimadzu Co. (Kyoto, Japan) paired with a Gemini C18 analytical column from Phenomenex (Torrance, CA, USA). A SCIEX 4500 QTRAP mass spectrometer (Sciex, Redwood City, CA, USA) facilitated the MS-based detection. Calibration standards were prepared by combining 100 μL of a reference solution with 10 μL of a vancomycin internal standard (concentration of 100 μg/mL) in microcentrifuge tubes. To this mixture, 400 μL of acetonitrile was added to precipitate proteins, followed by vortex mixing for 60 s. Following centrifugation at 12,000 rpm for 2 min at 4 °C, the clear supernatant was diluted 10-fold with deionized water. A 10 μL sample of this solution was then introduced into the HPLC-MS/MS for analysis. In a parallel procedure for plasma samples, after the addition of the vancomycin internal standard and acetonitrile-induced protein precipitation, the sample was processed like that of the calibration standard preparation before HPLC-MS/MS analysis. The teicoplanin concentration in the plasma was determined by comparing the peak area ratio of teicoplanin to the internal standard and employed a batch-specific calibration curve equation, adjusted for 1/x^2 weighting.
The PK analysis of teicoplanin was completed using a nonlinear mixed-effects modeling technique with NONMEM software (version 7.5, ICON Clinical Research LLC, North Wales, PA, USA). Parameter estimation for both the observed and the unaccounted-for random effects was achieved by applying the First-Order Conditional Estimation with Interaction approach. This method facilitates the consideration of interactions between the unexplained interindividual variability (IIV) of PK parameters and the residual unexplained variability in the observed concentrations. To model the PK profiles of teicoplanin, we used one-compartment (ADVAN1 TRANS2), two-compartment (ADVAN3 TRANS4), and three-compartment (ADVAN11 TRANS4) models which were based on first-order kinetics, with the exception of zero-order infusion processes.
Model selection and evaluation were based on several criteria: NONMEM’s objective function values (OFVs), parameter estimate precision (reflected by relative standard errors), IIV shrinkage, diagnostic fit plots, visual predictive checks, and bootstrap analysis. For nested model comparisons, a decrease in OFV (ΔOFV) exceeding 3.84 (for a χ^2 distribution with one degree of freedom, df) or 5.99 (for a χ^2 distribution with two df) indicated meaningful improvements at a significance level of p < 0.05. The diagnostic plots for model assessment include conditional weighted residuals (CWRES) against time and population predictions (PRED), as well as actual observations compared with both PRED and individual predictions. Visual predictive checks (VPC) were conducted by matching the observed concentrations to the 80% prediction intervals from 1000 simulations based on the final PK model. The variability in the final predictions was determined by calculating the median and 95% confidence intervals for the PK parameters from 2000 bootstrap samples.
Significant covariates affecting PK parameters were determined using stepwise selection, with inclusion at p < 0.01 (ΔOFV < −6.635) and exclusion at p < 0.001 (ΔOFV > 10.83) for one df. Covariates had to show statistical and clinical relevance. […]

[5] = in vivo; cited from earlier work
Text: This study had several limitations. First, a small sample size of 12 subjects was insufficient to detect a variety of meaningful covariates, although eGFR and body weight were identified as significant factors. Thus, future studies with larger patient cohorts will be needed to develop more robust models. […] This decision, aimed at enhancing model stability and interpretability, involved employing the FOCE-I method and facing challenges with other estimation methods due to our ...

[6] = Single 200 mg IV infusion (30 min) PK in 12 healthy adults, noncompartmental analysis; type: in vivo, human; details: n = 12; for Cmax: plasma, HPLC-MS/MS
Experimental: as §1, §2
A noncompartmental analysis (NCA) was completed to evaluate the plasma concentration–time profiles of teicoplanin using the R programming language and the NonCompart package. The following PK parameters were assessed: maximum observed plasma concentration (Cmax), time of last measurable concentration (Tlast), concentration corresponding to Tlast (Clast), area under the plasma concentration–time curve (AUC) from the start of dosing to the last quantifiable concentration (AUClast), AUC from the start of dosing to infinity (AUCinf), area under the first moment curve (AUMC) from 0 h to the Tlast (AUMClast), AUMC extrapolated to infinity, based on the last observed concentration (AUMCinf), mean residence time from 0 h to infinite (MRTinf), total body clearance as determined through NCA (CLNCA), volume of distribution (Vd) determined via NCA (VzNCA), steady-state Vd determined via NCA (VssNCA), and terminal elimination half-life (t1/2λz). Cmax, Tlast, and Clast were determined directly from the observed data. AUClast and AUMClast were calculated employing the linear-up and log-down trapezoidal method. AUCinf was estimated by adding Clast/λz to AUClast, where λz is the terminal elimination rate constant, which was determined by log-linear regression of the terminal phase plasma concentrations. AUMCinf was calculated using the following formula: AUMClast + (Tlast × Clast)/λz + Clast/λz^2, MRTinf as AUMCinf/AUCinf—infusion time/2, CLNCA as dose/AUCinf, VzNCA as CLNCA/λz, VssNCA as MRTinf × CLNCA, and t1/2λz as ln(2)/λz.

[7] = cited from earlier work
Text: In the present study, the PK profile of teicoplanin in healthy adults was characterized using a three-compartment model. Typically, in studies with sparse sampling designs, the PK profile of teicoplanin is often delineated using one- [15, 16] or two-compartment models; however, previous studies using dense sampling approaches have also applied a three-compartment model. Such models are characterized by three distinct slopes when plotted on a graph with the y-axis representing a logarithmic scale, corresponding to the composition of three exponential equations ...

teicoplanin
steady-state Ctrough, median (range) [1]: 15.9 (8.8–29.9) mg/L | elimination half-life [2]: 83 to 182 h | patients achieving AUC ≥800 mg/L·h [3]: 100% | Q2, bootstrap median (95% CI) ([4]; 2000 bootstrap samples): 4.45 (3.63–5.86) L/h | Q3, bootstrap median (95% CI) ([4]; 2000 bootstrap samples): 1.75 (1.44–2.13) L/h | V1, bootstrap median (95% CI) ([4]; 2000 bootstrap samples): 3.97 (3.15–4.62) L | V2, bootstrap median (95% CI) ([4]; 2000 bootstrap samples): 8.33 (7.07–9.85) L | θ1 (CL), bootstrap median (95% CI) ([4]; 2000 bootstrap samples): 0.693 (0.653–0.74) L/h | θ2, bootstrap median (95% CI) ([4]; 2000 bootstrap samples): 0.789 (0.422–1.16) | θ7 (V3), bootstrap median (95% CI) ([4]; 2000 bootstrap samples): 69.7 (55.8–82.6) L | θ8, bootstrap median (95% CI) ([4]; 2000 bootstrap samples): 1.73 (0.67–2.44) | CL typical value θ1, CL = θ1 × (CE/105.27)^θ2, estimate ([4]; final model estimate): 0.693 L/h | Q2 = θ4, intercompartmental clearance V1-V2, estimate ([4]; final model estimate): 4.45 L/h | Q3 = θ6, intercompartmental clearance V1-V3, estimate ([4]; final model estimate): 1.76 L/h | V1 = θ3, central volume of distribution, estimate ([4]; final model estimate): 3.96 L | V2 = θ5, first peripheral volume, estimate ([4]; final model estimate): 8.24 L | θ7, V3 = θ7 × (WT/67.85)^θ8, second peripheral volume, estimate ([4]; final model estimate): 69.8 L | θ8, exponent of weight on V3, estimate ([4]; final model estimate): 1.73 | VSS typical value (V1 + V2 + V3) ([4]; healthy subjects): 82.0 L | CL, total clearance ([4]; mean (CV%)): 0.0107 (14.0%) L/h/kg | CL, total clearance ([4]; median (IQR)): 0.0104 (0.00961–0.0122) L/h/kg | AUC (dose/CL) ([4]; mean (CV%)): 299 (16.0%) mg/L·h | VC, central volume of distribution ([4]; mean (CV%)): 0.0644 (28.9%) L/kg | Vss, steady-state volume of distribution ([4]; mean (CV%)): 1.21 (23.0%) L/kg | AUC (dose/CL) ([4]; median (IQR)): 300 (263–316) mg/L·h | VC, central volume of distribution ([4]; median (IQR)): 0.0649 (0.0526–0.0733) L/kg | Vss, steady-state volume of distribution ([4]; median (IQR)): 1.24 (1.06–1.34) L/kg | 1st t1/2 ([4]; mean (CV%)): 0.345 (36.3%) h | 2nd t1/2 ([4]; mean (CV%)): 4.12 (22.2%) h | 3rd t1/2 ([4]; mean (CV%)): 103 (29.9%) h | 1st t1/2 ([4]; median (IQR)): 0.317 (0.289–0.417) h | 2nd t1/2 ([4]; median (IQR)): 4.23 (3.78–4.83) h | 3rd t1/2 ([4]; median (IQR)): 97.9 (83.1–116) h | linear PK range [5]: 2 to 25 mg/kg | t1/2λz, terminal elimination half-life ([6]; last 3 or 4 points, mean (CV%)): 54.6 (13.2%) h | AUCinf ([6]; mean (CV%)): 307 (15.4%) mg/L·h | AUClast ([6]; mean (CV%)): 273 (16.6%) mg/L·h | AUMCinf ([6]; mean (CV%)): 22,700 (14.8%) mg/L·h^2 | AUMClast ([6]; mean (CV%)): 13,800 (16.0%) mg/L·h^2 | CLNCA ([6]; mean (CV%)): 0.0105 (15.2%) L/h/kg | Clast ([6]; mean (CV%)): 0.431 (24.9%) mg/L | MRTinf ([6]; mean (CV%)): 74.0 (12.8%) h | VssNCA ([6]; mean (CV%)): 0.776 (19.6%) L/kg | AUCinf ([6]; median (IQR)): 305 (279–332) mg/L·h | AUClast ([6]; median (IQR)): 270 (247–302) mg/L·h | AUMCinf ([6]; median (IQR)): 22,300 (20,200–23,200) mg/L·h^2 | AUMClast ([6]; median (IQR)): 13,800 (12,300–15,000) mg/L·h^2 | CLNCA ([6]; median (IQR)): 0.0103 (0.00896–0.0117) L/h/kg | Clast ([6]; median (IQR)): 0.422 (0.348–0.470) mg/L | MRTinf ([6]; median (IQR)): 76.7 (68.0–80.7) h | Tlast ([6]; median (IQR)): 192 (169–194) h | VssNCA ([6]; median (IQR)): 0.734 (0.661–0.859) L/kg | t1/2λz, terminal elimination half-life ([6]; median (IQR)): 55.0 (51.9–58.6) h | Cmax ([6]; mean (CV%)): 32.1 (12.9%) mg/L | Cmax ([6]; median (IQR)): 30.9 (29.5–35.6) mg/L | V1 [7]: 4.32 L | V2 [7]: 8.35 L | V3 [7]: 68.6 L | VSS [7]: 81.3 L | CL ([7]; mean 64 years, 69.1 kg, CLCR 72 mL/min): 0.490 L/h
